Reference: patent US20020151707A1, “Immune mediators and related methods” (Corixa Corp., priority 1995, published 2002)

Experiments:
[1] = tested on: T cell lines derived from one HLA-DRB1*0404 patient (ThHo); experiment: Reactivity of GAD-reactive human T cell lines to synthetic GAD peptides (3H-thymidine proliferation); assay type: cell-based; details: for number of T cell lines stimulated: of 4 T cell lines
Procedure: T-cell clones were rested (not given IL-2 for 2 days, at least 7 days post-stimulation with antigen), washed, counted and resuspended in 15% PHS medium. They were plated at 25,000 cells/well in […] 15% PHS medium. Autologous or HLA-class II-matched PBMNCs are loaded with GAD by incubating with GAD (about […]) for at least 5 hours. The cells are washed and irradiated with 3000 rads. These cells are washed and resuspended in 15% PHS medium, and added to the T-cells at a concentration of 1×10^6 cells/well in […] 15% PHS medium. The cells were incubated for 48 hours, then pulsed with […] 3H-thymidine and harvested. A positive response is considered to be a stimulation index >3 (stimulation index SI=average cpm of sample stimulated with antigen/average cpm of sample of cells stimulated with no antigen or control antigen). Some controls include T-cells alone, stimulators alone, a purified negative antigen, GAD purified from baculovirus, PHA, and IL-2.
Other methods, well known in the art, for testing clones and lines include dose response to antigen; response to these antigens or negative antigen controls; determination of HLA-class II restriction by adding blocking anti-HLA class II antibody to plates; and use of peptides to load stimulators to determine peptide specificity, which can be done as described above except the peptides are tested by dose titration and left in the assay. A dose response in combination with peptide specificity tests can also be done.
Four individual T cell lines derived from one HLA-DRB1*0404 patient (ThHo) were used to map the 74 synthetic GAD peptides, overlapping sets of 20 mers, that span the entire length of GAD 65 (SEQ. ID. NO. 59). Antigen presenting cells, BLS-DRB1*0404 and/or BLS-DRB1*0401 (Kovats et al., J. Exp. Med. 179:2017-22, 1994), were loaded with peptide by incubating with peptide (about […]) for at least 5 hours. Reactivity of T-cells was determined as above. One peptide, hGAD 33 ([…] SEQ. ID. NO. 40) stimulated 3 or the 4 lines with BLS-B1*0404. […]

NOD MHC Class II I-A^g7 = details: known from the literature (Reich et al.); cited from earlier work
[2] = tested on: C-terminal amidated GAD65+I-A^g7 restricted T cell hybridomas (MBD.1, MBD2.3, MBD2.7, MBD2.8, MBD2.11, MBD2.14); experiment: Activation of GAD65 restricted T-cell hybridomas, read as CTLL proliferation in response to IL-2; assay type: cell-based, NOD mouse; details: hybridoma MBD.1; peptide + I-A^g7 of NOD APCs; CTLL cells
Procedure: To determine specificity of the T-cell hybridomas, antigen-presenting cells (APCs) were prepared by grinding NOD mice spleens and lysing as in Example 11. The splenocytes were brought to 3 ml in Bruff's medium containing 10% FBS. Mitomycin C (Sigma) was added at 0.3 ml per 3 ml of cell suspension to prevent DNA synthesis. The APCs were incubated for 30 minutes in a 37° C. water bath, and then washed 3 times in Bruff's medium containing 10% FBS, each time centrifuging for 5 minutes at 1200 RPM. After the final wash, the APCs were brought to a concentration of 2×10^6 cells/ml in Bruff's medium containing 10% FBS. C-terminal amidated GAD65 peptide was titered from 333 μg/ml to 0.15 μg/ml in round bottom 96 well plates. Fifty microliters (1×10^5) APCs were added to the peptides. Hybridomas were counted and brought to a concentration of 1×10^6 cells/ml in Bruff's medium containing 10% FBS, and 100 μl (1×10^5) cells was added to each well. Hybridomas were also tested against the following: I-A^g7 MHC +a peptide other than C-terminal amidated GAD65; an MHC other than I-A^g7+C-terminal amidated GAD65; the I-A^g7 MHC alone; and C-terminal amidated GAD65 alone. The plate was incubated at 37° C., 5% CO2, overnight. […] Incorporation of ^3H-thymidine into the DNA was measured on a Wallac 1205 Betaplate Beta Counter (Turku, Finland). […]

NOD recipient mice = experiment: Adoptive transfer of IDDM with splenocytes from diabetic NOD mice; assay type: in vivo, NOD mouse
Source text: IDDM can also be adoptively transferred by transplanting splenic cells from a diabetic-donor to a non-diabetic recipient (Baron et al., J. Clin. Invest. 93:1700-08, 1994). This method involves treating in vivo activated mature T cells. Briefly, NOD/CaJ mice are irradiated (730 rad) and randomly divided into treatment groups. Splenocytes, preferably about 1.5×10^7, from newly diabetic mice are isolated and injected intravenously into non-diabetic NOD 7-8 week old recipient mice, followed six hours later with intravenous injections of saline, peptide or MHC:peptide complex at 10, 5, or 1 μg/mouse. The injections are repeated on days 4, 8 and 12 following the original injection. Mice are tested for the onset of diabetes by urine analysis, and at the time of sacrifice, blood glucose. Treatment of these mice with an MHC:peptide complex is expected to lengthen the time period before the onset of diabetes and/or to prevent or ameliorate the disease. […]
IDDM can be adoptively transferred by injecting splenic cells from a diabetic donor into a non-diabetic recipient. […] Those animals showing positive urine values of at least 250 mg/dl glucose were further analyzed for blood glucose levels using tail clippings, and if the blood glucose was also at or above 250 mg/dl, the mice were classified as overtly diabetic. […]

PGGAISNMYAM [ID; NO; 39]
number of T cell lines stimulated ([1]; presented by either BLS-B1*0404 or BLS-DRB1*0401): one

MSA: Mouse serum albumin (MSA), a known allele-specific peptide (SEQ. ID. NO. 61), positive control
affinity for I-A^g7 (control peptides) (NOD MHC Class II I-A^g7): high affinity

SRLSKVAPVIKARMMEYGTT-NH2 [C-terminal amidated GAD65 peptide]
proliferative response, incorporated 3H-thymidine [2]: > 5000 cpm
mice that had developed disease by day 30 (NOD recipient mice; 10 μg/mouse peptide alone): over 75%
overall effect on onset of diabetes in the adoptive transfer model (NOD recipient mice; mouse, in vivo): accelerated the onset of diabetes

PGGAISNMYAMMIARFKMFP (PGGAISNMYAMMIARFKNFP) [hGAD 33, ID; NO; 40]
number of T cell lines stimulated ([1]; peptide presented by BLS-B1*0404): 3

PGGAISNMYA [ID; NO; 41]
stimulation of T-cell line, HLA restriction ([1]; APC BLS-B1*0404 versus BLS-DRB1*0401): stimulated the same T-cell line only when presented by BLS-B1*0404

SRLSKVAPVIKARMMEYGTT [same GAD65 peptide (aa 524-543) with a carboxylic group at the C-terminus]
proliferative response (lesser response) [2]: > 2000 CMP
